Patent US4757080A, “1,4-dihydropyridine derivatives” (Heumann Pharma GmbH & Co., priority 1986, dated 1988)

Key:
H2-receptor = target: T1, H2-receptor (Cavia porcellus, UniProt P47747); test: H2 agonistic activity (pD2-values), method of J. M. van Rossum, cumulative dose-response curves in isolated organs
T1 construct: Technique for the making of dose-response curves in isolated organs; from tissue
Source text: Technique for the making of dose-response curves in isolated organs and the evaluation of drug parameters, Arch. Intern. Pharmacodyn. Therap.

[1] = target: T2, isolated guineapig's ileum (Cavia porcellus); test: calcium antagonistic activity on isolated guineapig's ileum stimulated with barium chloride; details: read-out: pA2-value (BaCl2) (converted)
T2 construct: isolated guineapig's ileum; from tissue; host or cells: isolated guinea pig ileum
T2 sequence (O35505 whole entry): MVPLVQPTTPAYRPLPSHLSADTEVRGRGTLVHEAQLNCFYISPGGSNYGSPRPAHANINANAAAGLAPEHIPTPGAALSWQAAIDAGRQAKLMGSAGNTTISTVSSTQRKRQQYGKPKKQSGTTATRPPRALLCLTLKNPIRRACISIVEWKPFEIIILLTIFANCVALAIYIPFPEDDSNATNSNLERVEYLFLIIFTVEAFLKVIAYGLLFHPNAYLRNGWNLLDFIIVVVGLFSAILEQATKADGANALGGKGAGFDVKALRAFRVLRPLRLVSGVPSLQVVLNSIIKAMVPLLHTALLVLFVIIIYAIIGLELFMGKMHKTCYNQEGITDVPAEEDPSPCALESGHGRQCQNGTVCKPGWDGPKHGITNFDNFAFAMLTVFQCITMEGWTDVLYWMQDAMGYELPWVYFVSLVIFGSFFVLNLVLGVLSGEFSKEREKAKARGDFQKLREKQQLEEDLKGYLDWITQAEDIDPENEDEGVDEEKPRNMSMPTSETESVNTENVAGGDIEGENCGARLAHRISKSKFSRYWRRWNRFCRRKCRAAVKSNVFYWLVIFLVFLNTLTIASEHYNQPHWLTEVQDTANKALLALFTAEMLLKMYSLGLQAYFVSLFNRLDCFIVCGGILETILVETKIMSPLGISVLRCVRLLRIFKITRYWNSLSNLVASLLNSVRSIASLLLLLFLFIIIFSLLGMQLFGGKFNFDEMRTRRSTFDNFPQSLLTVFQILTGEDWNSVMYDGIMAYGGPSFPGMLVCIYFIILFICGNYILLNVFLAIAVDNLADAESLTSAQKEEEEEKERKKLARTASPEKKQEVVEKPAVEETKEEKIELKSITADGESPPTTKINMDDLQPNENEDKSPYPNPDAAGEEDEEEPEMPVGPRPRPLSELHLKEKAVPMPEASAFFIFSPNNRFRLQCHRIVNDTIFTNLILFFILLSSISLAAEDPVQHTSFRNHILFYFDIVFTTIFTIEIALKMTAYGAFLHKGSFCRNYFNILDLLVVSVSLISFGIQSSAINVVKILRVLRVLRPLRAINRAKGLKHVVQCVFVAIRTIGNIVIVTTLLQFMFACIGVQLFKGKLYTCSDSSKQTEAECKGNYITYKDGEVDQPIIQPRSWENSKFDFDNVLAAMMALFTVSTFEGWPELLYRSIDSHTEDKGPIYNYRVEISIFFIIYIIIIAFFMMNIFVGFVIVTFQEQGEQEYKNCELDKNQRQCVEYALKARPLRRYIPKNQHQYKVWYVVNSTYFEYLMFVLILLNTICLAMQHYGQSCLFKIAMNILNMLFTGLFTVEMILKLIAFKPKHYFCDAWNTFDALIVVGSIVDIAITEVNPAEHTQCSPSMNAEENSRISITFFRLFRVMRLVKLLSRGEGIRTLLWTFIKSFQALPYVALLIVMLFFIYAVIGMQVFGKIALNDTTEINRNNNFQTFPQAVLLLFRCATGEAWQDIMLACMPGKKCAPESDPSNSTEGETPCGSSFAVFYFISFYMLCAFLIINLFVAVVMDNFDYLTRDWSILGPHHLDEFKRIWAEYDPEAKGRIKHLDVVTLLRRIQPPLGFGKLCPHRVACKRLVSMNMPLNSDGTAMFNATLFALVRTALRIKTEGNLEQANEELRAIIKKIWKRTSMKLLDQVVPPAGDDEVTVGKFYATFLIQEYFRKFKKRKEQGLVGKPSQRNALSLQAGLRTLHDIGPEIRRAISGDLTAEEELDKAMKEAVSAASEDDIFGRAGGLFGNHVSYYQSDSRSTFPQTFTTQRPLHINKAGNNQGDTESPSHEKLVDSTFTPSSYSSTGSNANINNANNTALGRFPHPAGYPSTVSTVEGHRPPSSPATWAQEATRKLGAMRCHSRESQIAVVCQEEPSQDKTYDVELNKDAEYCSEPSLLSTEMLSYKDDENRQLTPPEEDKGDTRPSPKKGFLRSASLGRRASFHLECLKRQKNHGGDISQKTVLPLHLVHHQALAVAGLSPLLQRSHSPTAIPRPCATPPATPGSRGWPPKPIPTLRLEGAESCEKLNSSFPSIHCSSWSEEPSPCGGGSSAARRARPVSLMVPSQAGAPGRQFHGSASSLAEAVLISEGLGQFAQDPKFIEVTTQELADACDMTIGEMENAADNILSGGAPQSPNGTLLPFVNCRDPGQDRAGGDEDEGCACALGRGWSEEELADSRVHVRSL

[2] = test system: arterial resistance, coronary dilatation, activity of the heart; details: in words, background, cited from earlier work

T1 sequence (P47747 whole entry): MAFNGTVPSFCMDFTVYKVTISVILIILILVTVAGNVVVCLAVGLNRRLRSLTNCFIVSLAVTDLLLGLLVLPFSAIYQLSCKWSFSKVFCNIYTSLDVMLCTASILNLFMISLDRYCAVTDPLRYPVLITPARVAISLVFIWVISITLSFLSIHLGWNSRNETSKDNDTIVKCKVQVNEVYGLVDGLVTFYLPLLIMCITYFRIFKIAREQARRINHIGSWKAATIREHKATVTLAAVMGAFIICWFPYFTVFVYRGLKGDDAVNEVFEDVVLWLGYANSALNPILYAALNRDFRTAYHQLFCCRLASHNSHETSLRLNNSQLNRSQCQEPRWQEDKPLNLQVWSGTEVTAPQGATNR

SMILES	EC50 (H2-receptor) [nM]	Kb [1] [nM]	arterial resistance [2]	coronary dilatory effect [2]	inhibition of the activity of the heart ([2]; therapeutic doses)
COC(=O)C1=C(C)NC(C)=C(C(=O)OCCNC(=N)NCCCc2c[nH]cn2)C1c1ccccc1[N+](=O)[O-] (stereo not shown) [Example 1, N^1-[2-[1,4-Dihydro-2,6-dimethyl-3-methoxycarbonyl-4-(2-nitrophenyl)-pyridine-5-carboxy]ethyl]-N^2-[3-(1H-imidazol-4-yl)propyl]-guanidine-hydriodide]	47.9	38			
COC(=O)C1=C(C)NC(C)=C(C(=O)OCCCCCCNC(=N)NCCCc2c[nH]cn2)C1c1cccc([N+](=O)[O-])c1 (stereo not shown) [Example 7, N^1-[6[1,4-dihydro-2,6-dimethyl-3-methoxycarbonyl-4-(3-nitrophenyl)-pyridine-5-carboxy]hexyl]-N^2 [3-(1H-imidazol-4-yl)propyl]-guanidine hydriodide]	38.9	110			
COC(=O)C1=C(C)NC(C)=C(C(=O)OCCNC(=N)NCCCc2c[nH]cn2)C1c1cccc(Cl)c1Cl (stereo not shown) [Example 8, N^1-[2-[1,4-Dihydro-2,6-dimethyl-3-methoxycarbonyl-4-(2,3-dichlorophenyl)-pyridine-5-carboxy]ethyl]-N^2-[3-(1H-imidazol-4-yl)propyl]-guanidine hydriodide]	331	30.2			
Cc1[nH]cnc1CSCCNC(=N)NCCCc1c[nH]cn1 [Impromidine, reference compound]	21.4				
COC(=O)C1=C(C)NC(C)=C(C(=O)OC)C1c1ccccc1[N+](=O)[O-] [Nifedipine, 1,4-dihydro-2,6-dimethyl-4-(2-nitrophenyl)-3,5-pyridine carboxylic acid dimethyl ester]			lowers the arterial resistance	very marked coronary dilatory effect	without inhibiting the activity of the heart
